Where two headings read alike, the source gives them in different places.
Legend:
Type in all cases: in vivo
[1] = test system: Echinochloa crus-galli (ECHCG); assay: Biological Example 1 glasshouse screen, pre-emergence herbicidal activity; conditions: 312 h, read-out: ECHCG percentage phytotoxicity
Protocol: (§1) Seeds of a variety of test species were sown in standard soil in pots. After cultivation for one day (pre-emergence) or after 8 days cultivation (post-emergence) under controlled conditions in a glasshouse (at 24/16°C., day/night; 14 hours light; 65% humidity), the plants were sprayed with an aqueous spray solution derived from the formulation of the “technical”(i.e. unformulated) active ingredient in acetone/water (50:50) solution containing 0.5% Tween 20 (polyoxyethylene sorbitan monolaurate, CAS Registry Number 9005-64-5). The test plants were then grown in a glasshouse under controlled conditions in a glasshouse (at 24/16°C., day/night; 14 hours light; 65% humidity) and watered twice daily. After 13 days for pre- or post-emergence, the test was evaluated visually, and an assessed percentage phytotoxicity score given for each herbicidal application on each plant/weed species (with 100%=total damage to plant; 0%=no damage to plant).
(§2) Test plants: Alopecurus myosuroides (ALOMY), Setaria faberi (SETFA), Echinochloa crus-galli (ECHCG), Solanum nigrum (SOLNI), Amaranthus retroflexus (AMARE) and Ipomoea hederacea (IPOHE). ALOMY, SETFA and ECHCG are grassy monocotyledonous weeds. SOLNI, AMARE and IPOHE are dicotyledonous (broadleaved) weeds.
(§3) Test plants: Lolium perenne (LOLPE), Alopecurus myosuroides (ALOMY), Echinochloa crus-galli (ECHCG), and Avena fatua (AVEFA). All four of these are grassy monocotyledonous weeds.

[2] = test system: Alopecurus myosuroides (ALOMY); assay: as above; conditions: 312 h, read-out: ALOMY percentage phytotoxicity
Protocol: as §1, §2, §3

Avena fatua (AVEFA) [3] = assay: Biological Example 1 glasshouse screen, post-emergence herbicidal activity; conditions: 312 h, read-out: AVEFA percentage phytotoxicity
Protocol: as §1, §3

Lolium perenne (LOLPE) [4] = assay: as above; conditions: 312 h, read-out: LOLPE percentage phytotoxicity
Protocol: as §1, §3

Avena fatua (AVEFA) [5] = assay: Biological Example 2 post-emergence herbicidal activity (comparative data)
Protocol: as §1
(§4) Comparative herbicidal data are given for certain exemplified compounds with 4-(prop-1-ynyl)-2,6-dimethylphenyl or 4-(chloroethynyl)-2,6-dimethylphenyl headgroups, compared to the corresponding comparative compounds with 4-ethynyl-2,6-dimethylphenyl headgroups, as follows.
(§5) Except where specified otherwise, the glasshouse screen for herbicidal activity is substantially the same as that presented in Biological Example 1 hereinabove. The weed abbreviations are as defined in Biological Example 1.

Lolium perenne (LOLPE) [6] = assay: as above
Protocol: as §1, §4, §5

[7] = test system: Echinochloa crus-galli (ECHCG); assay: as above; conditions: 312 h, read-out: ECHCG percentage phytotoxicity
Protocol: as §1, §4, §5

[8] = test system: Alopecurus myosuroides (ALOMY); assay: as above; conditions: 312 h, read-out: ALOMY percentage phytotoxicity
Protocol: as §1, §4, §5

[9] = test system: Echinochloa crus galli, barnyardgrass (ECHCG); assay: Biological Example 3 glasshouse screen, post-emergence herbicidal activity; conditions: 360 h, read-out: ECHCG percentage phytotoxicity; for pest or weed control at 60 g/ha: application rate 60 g/ha
Protocol: (§6) Test Method: Seeds of a variety of test species are sown in standard soil in pots. After cultivation for one day (pre-emergence) or after 12 days cultivation (post-emergence) under controlled conditions in a glasshouse (warm climate species at 24/18°C., cool climate species at 20/16°C., both at day/night; 16 hours light; 65% humidity), the plants are sprayed with an aqueous spray solution derived from the formulation of the “technical”(i.e. unformulated) active ingredient dissolved in acetone plus IF50, at a 1:20 ratio of “technical”active ingredient to IF50. The IF50 contains about 10.56 weight % Emulsogen EL™(castor oil ethoxylate, CAS Registry number 61791-12-6), about 42.22 weight % N-methylpyrrolidone, and about 42.22 weight % DPG-Monoethyl ether (dipropylene glycol mono-ethyl ether). The adjuvant X-77 (a mixture of alkyl aryl polyoxyethylene glycols and free fatty acids in isopropanol, CAS Registry number 11097-66-8) is added to the aqueous spray solution to form a 0.2% v/v solution, before spraying onto the plants.
(§7) The test plants are then grown in a glasshouse under controlled conditions in a glasshouse (at 24/18°C. or 20/16°C., day/night; 16 hours light; 65% humidity) and watered twice daily. After 15 days after application of the herbicide (15 DAA) (for post-emergence), and after 20 DAA (for pre-emergence), the test is evaluated visually, and an assessed percentage phytotoxicity score is given for each herbicidal application on each plant/weed species (with 100%=total damage to plant; 0%=no damage to plant). […]

[10] = test system: Avena fatua, wild oats (AVEFA); assay: as above; conditions: 360 h, read-out: AVEFA percentage phytotoxicity; for pest or weed control at 60 g/ha: application rate 60 g/ha
Protocol: as §6, §7

[11] = test system: Alopecurus myosuroides, blackgrass (ALOMY); assay: as above; conditions: 360 h, read-out: ALOMY percentage phytotoxicity; for pest or weed control at 60 g/ha: application rate 60 g/ha
Protocol: as §6, §7

[12] = test system: Lolium perenne, perennial ryegrass (LOLPE); assay: as above; conditions: 360 h, read-out: LOLPE percentage phytotoxicity; for pest or weed control at 60 g/ha: application rate 60 g/ha
Protocol: as §6, §7

[13] = test system: Echinochloa crus-galli (ECHCG); assay: Biological Example 1 glasshouse screen, post-emergence herbicidal activity; conditions: 312 h, read-out: ECHCG percentage phytotoxicity
Protocol: as §1, §2, §3

[14] = test system: Alopecurus myosuroides (ALOMY); assay: as above; conditions: 312 h, read-out: ALOMY percentage phytotoxicity
Protocol: as §1, §2, §3

[15] = test system: Triticum aestivum, wheat (TRZAW); assay: Biological Example 3 glasshouse screen, post-emergence, phytotoxicity on wheat; conditions: 360 h, read-out: TRZAW percentage phytotoxicity; for pest or weed control at 60 g/ha: application rate 60 g/ha
Protocol: as §6
The test plants are then grown in a glasshouse under controlled conditions in a glasshouse (at 24/18°C. or 20/16°C., day/night; 16 hours light; 65% humidity) and watered twice daily. After 15 days after application of the herbicide (15 DAA) (for post-emergence), and after 20 DAA (for pre-emergence), the test is evaluated visually, and an assessed percentage phytotoxicity score is given for each herbicidal application on each plant/weed species (with 100%=total damage to plant; 0%=no damage to plant).
These give an approximate indication of the level of selectivity on wheat for these tested compounds, when a herbicide safener such as cloquintocet-mexyl is not used: […]

Avena fatua (AVEFA) [16] = assay: Biological Example 1 glasshouse screen, pre-emergence herbicidal activity; conditions: 312 h, read-out: AVEFA percentage phytotoxicity
Protocol: as §1, §3

Lolium perenne (LOLPE) [17] = assay: as above; conditions: 312 h, read-out: LOLPE percentage phytotoxicity
Protocol: as §1, §3

Setaria faberi (SETFA) = assay: Biological Example 2 post-emergence herbicidal activity (comparative data)
Protocol: as §1, §4, §5

[18] = application rate 250 g/ha, evaluated after 13 days
[19] = application rate 30 g/ha, 15 DAA, no safener

Row | SMILES | AVEFA percentage phytotoxicity (Avena fatua (AVEFA) [5]; 15.625 g/ha application rate) [%] | AVEFA percentage phytotoxicity (Avena fatua (AVEFA) [5]; 62.5 g/ha application rate) [%] | LOLPE percentage phytotoxicity (Lolium perenne (LOLPE) [6]; 15.625 g/ha application rate) [%] | LOLPE percentage phytotoxicity (Lolium perenne (LOLPE) [6]; 62.5 g/ha application rate) [%] | pest or weed control at 250 g/ha [1, 18] [%] | pest or weed control at 250 g/ha [2, 18] [%] | pest or weed control at 250 g/ha (Avena fatua (AVEFA) [3]; [18]) [%] | pest or weed control at 250 g/ha (Lolium perenne (LOLPE) [4]; [18]) [%] | pest or weed control at 60 g/ha ([9]; 15 DAA, no safener) [%] | pest or weed control at 60 g/ha ([10]; 15 DAA, no safener) [%] | pest or weed control at 60 g/ha ([11]; 15 DAA, no safener) [%] | pest or weed control at 60 g/ha ([12]; 15 DAA, no safener) [%] | pest or weed control at 250 g/ha [13, 18] [%] | pest or weed control at 250 g/ha [14, 18] [%] | pest or weed control at 60 g/ha ([15]; 15 DAA, no safener) [%] | pest or weed control at 250 g/ha (Avena fatua (AVEFA) [16]; [18]) [%] | pest or weed control at 15.625 g/ha ([7]; 15.625 g/ha application rate) [%] | pest or weed control at 62.5 g/ha ([7]; 62.5 g/ha application rate) [%] | pest or weed control at 15.625 g/ha ([8]; 15.625 g/ha application rate) [%] | pest or weed control at 62.5 g/ha ([8]; 62.5 g/ha application rate) [%] | also measured
1 | CC#Cc1cc(C)c(C2=C(O)CC(Cc3ccccn3)C2=O)c(C)c1 (racemic) [Compound A-2, rac-2-(2,6-Dimethyl-4-prop-1-ynylphenyl)-4-(pyridin-2-ylmethyl)cyclopentane-1,3-dione] | 80 | 90 | 100 | 100 |  |  |  |  |  |  |  |  |  |  |  |  |  |  |  |  | pest or weed control at 250 g/ha [1]: 100%; pest or weed control at 250 g/ha [2]: 100%; pest or weed control at 250 g/ha (Avena fatua (AVEFA) [3]): 100%; pest or weed control at 250 g/ha (Lolium perenne (LOLPE) [4]): 100%; pest or weed control at 15.625 g/ha [7]: 100%; pest or weed control at 62.5 g/ha [7]: 100%; pest or weed control at 15.625 g/ha [8]: 90%; pest or weed control at 62.5 g/ha [8]: 100%; pest or weed control at 30 g/ha [9]: 100%; pest or weed control at 30 g/ha [10]: 70%; pest or weed control at 30 g/ha [11]: 90%; pest or weed control at 30 g/ha [12]: 90%; pest or weed control at 250 g/ha [13]: 100%; pest or weed control at 250 g/ha [14]: 100%; plant injury at 30 g/ha [15]: 30%; pest or weed control at 250 g/ha (Avena fatua (AVEFA) [16]): 70%; pest or weed control at 250 g/ha (Lolium perenne (LOLPE) [17]): 100%
2 | CC#Cc1cc(C)c(C2=C(O)CC(Cc3cccc(C)n3)C2=O)c(C)c1 (stereo not drawn) [Compound A-9] |  |  |  |  | 100 | 100 | 100 | 100 | 100 | 30 | 80 | 100 | 100 | 90 | 30 | 100 |  |  |  |  | pest or weed control at 30 g/ha [9, 19]: 70%; pest or weed control at 30 g/ha [10, 19]: 30%; pest or weed control at 30 g/ha [11, 19]: 70%; pest or weed control at 30 g/ha [12, 19]: 50%; pest or weed control at 30 g/ha [15, 19]: 20%; pest or weed control at 250 g/ha (Lolium perenne (LOLPE) [17]; [18]): 100%
3 | CC#Cc1cc(C)c(C2=C(O)CC(Cc3cccnc3)C2=O)c(C)c1 (stereo not drawn) [Compound A-10] |  |  |  |  | 100 | 80 | 90 | 100 | 80 | 50 | 80 | 40 | 100 | 90 | 50 | 90 |  |  |  |  | pest or weed control at 250 g/ha (Lolium perenne (LOLPE) [17]; [18]): 100%
4 | CC#Cc1cc(C)c(C2=C(O)CC(Cc3cccnc3C#CC)C2=O)c(C)c1 (stereo not drawn) [Compound A-15] |  |  |  |  | 100 | 90 | 100 | 100 | 80 | 80 | 50 | 40 | 100 | 90 | 30 | 70 |  |  |  |  | pest or weed control at 250 g/ha (Lolium perenne (LOLPE) [17]; [18]): 100%
5 | C#Cc1cc(C)c(C2=C(O)CC(Cc3ccccn3)C2=O)c(C)c1 (stereo not drawn) [X-1, reference compound] | 50 | 90 | 60 | 100 |  |  |  |  |  |  |  |  |  |  |  |  | 70 | 80 | 60 | 100 | 
6 | C#Cc1cc(C)c(C2=C(O)CC(CC3CCOCC3)C2=O)c(C)c1 (stereo not drawn) [X-2, reference compound] | 90 | 90 | 80 | 90 |  |  |  |  |  |  |  |  |  |  |  |  | 70 | 90 | 60 | 90 | 
7 | C#Cc1cc(C)c(C2C(=O)CCC2=O)c(C)c1 [X-3, reference compound] |  |  |  |  |  |  |  |  |  |  |  |  |  |  |  |  | 0 | 20 | 0 | 0 | SETFA percentage phytotoxicity (Setaria faberi (SETFA); 15.625 g/ha application rate): 0%; SETFA percentage phytotoxicity (Setaria faberi (SETFA); 62.5 g/ha application rate): 0%
8 | C#Cc1cc(C)c(C2C(=O)C3C(C2=O)[C@H]2CC[C@@H]3O2)c(C)c1 (stereo partly drawn) [X-4, reference compound] |  |  |  |  |  |  |  |  |  |  |  |  |  |  |  |  | 80 | 80 | 30 | 80 | SETFA percentage phytotoxicity (Setaria faberi (SETFA); 15.625 g/ha application rate): 40%; SETFA percentage phytotoxicity (Setaria faberi (SETFA); 62.5 g/ha application rate): 40%

From patent publication US9107415B2, “2-(substituted-phenyl)-cyclopentane-1,3-dione compounds, and derivatives thereof” (Syngenta Limited, priority 2011, dated 2015)
